A melting point compilation (Tetko et al.; mined from patent text by program, amines drawn as free bases though some values may be those of a salt)

melting point | SMILES
95 °C | NCC1COc2cc(Cl)cc(-c3ccccc3F)c2N1 (centres undefined)
68 to 70 °C | O=S(=O)(O)c1ncnn1CC(O)(Cc1ccccc1Cl)C1(Cl)CC1 (centres undefined)
172 to 175 °C | O=C1c2ccccc2C(=O)N1CCN1CCCC1c1cccc(O)c1 (centres undefined)
134 °C | COc1ccc(Nc2nc(Cl)nc(Cl)n2)cc1F
238 to 240 °C | COC(=O)c1cc(C)cc(NC(=O)c2nnn[nH]2)c1O
130 to 150 °C | COc1cc(C(=O)N2CCC(CCN3CCC(O)(c4nc5ccccc5n4Cc4ccc(F)cc4)CC3)(c3ccc(Cl)c(Cl)c3)C2)cc(OC)c1OC (centres undefined)
225 to 231 °C | O=C1COc2cc3[nH]c(C(=O)N4CCC(Cc5ccccc5)CC4)cc3cc2N1
118 to 122 °C | COc1ccc(CC(C)=O)cc1S(=O)(=O)N1CCSCC1
105 to 107 °C | COC(=O)c1cccc(C=Cc2cccc(C(=O)OC)c2)c1
84 to 85 °C | c1csc(-c2nc(COc3ccc(CCCn4ccnc4)cc3)co2)c1
82 to 83 °C | Cc1cc([N+](=O)[O-])ccc1OC1CCN(C(=O)OC(C)(C)C)CC1
104 to 106 °C | CCOC(=O)CON(C)C(=S)Nc1ccc(Cl)cc1C
168 to 170 °C | COc1ccc2c(c1)c(OC(C)C)c(C(=O)Nc1ccccc1O)n2-c1ccccc1
240 °C | N#Cc1ccc2[nH]cc(-c3nc(-c4cccnc4)cs3)c2c1
121 to 122 °C | O=C(Nc1ccc(-n2ccnn2)c(F)c1)OCc1ccccc1
> 250 °C | CNCC1Cc2cc(-c3ccccc3)cc(-c3ccc(Cl)cc3)c2O1 (centres undefined)
73 to 75 °C | CC(C)Cc1nn(C)c(=O)c2cc(Cc3cccc4ccccc34)oc12
144 to 146 °C | CCOc1c(C(F)(F)F)cc([N+](=O)[O-])c2nc(C(F)(F)F)[nH]c12
63 to 65 °C | COC(=O)c1ccc2cc(CCCO)oc2c1

melting point | SMILES
151 to 152 °C | CC(=O)c1cc(CO)c(O)cc1O
178 to 180 °C | CCOC(=O)C(=O)c1nsc(NC(=O)c2ccccc2)n1
135 to 137 °C | CNc1nc(-c2cccc(NC(=O)c3cccnc3N3CCCC3)c2)c2cc(OC)c(OC)cc2n1
75 to 76 °C | CCc1cc(=O)c2cc(CCO)ccc2o1
168 to 169 °C | NC(=O)Cc1ccc(OC[C@@H]2CO2)cc1
178 to 180 °C | CC(=O)NC[C@H]1CN(c2ccc(-c3nc(Cn4cccn4)cs3)c(F)c2)C(=O)O1
195 °C | Nc1ccc2c(c1-c1n[nH]cc1Cl)OC(F)(F)O2
61 to 72 °C | c1ccc(Cn2ncc3c2Cc2cn[nH]c2-3)cc1
178 to 181 °C | COc1cc2c(CCNC(C)=O)cn(C(C)=O)c2cc1Cl
199 to 201 °C | CN1CCN(Cc2ccc(-c3cc4ncc(C#N)c(Nc5ccc(Oc6ccccc6)cc5)c4s3)cc2)CC1
108 °C | Cc1cc(C(=CC(=O)N2CCOCC2)c2ccccc2)ccc1OS(=O)(=O)N(C)C
164 to 166 °C | Nc1cccc2c(-c3ccccc3)c([N+](=O)[O-])oc12
227 °C | NC(=O)c1c(Cl)c(-c2cncs2)n2c1CCCC2
132 °C | CCOC(=O)c1cnn(-c2cccc(Cl)c2)c1C(N)=O
258 °C | CCOC(=O)COc1ccc(OCc2ccccc2)cc1C(Nc1ccc(C(=N)NC(=O)OC(C)(C)C)cc1)C(=O)OCC (racemic)
114 to 116 °C | CN(Cc1cc2c(=O)c(C(=O)NCc3ccc(Cl)cc3)cn(C)c2o1)CC(O)c1nccs1 (centres undefined)
205 to 206 °C | CCOC(=O)N1CCC(n2cnc(-c3ccc(F)cc3)c2-c2ccnc(NC)n2)CC1
228 to 231 °C | COc1ccc2c3c(oc2c1)CCC(C(=O)O)=C3

SMILES | melting point
O=C(c1ccc2c(c1)OC(c1cccc(Cl)c1)(c1cccc(Cl)c1)O2)N1CCCCC1 | 54 °C
N#Cc1nn(-c2c(Cl)cc(C(F)(F)F)cc2Cl)c(N)c1-c1ccccc1C(F)(F)F | 161 °C
